# Measurements from PMC12071365, “Discovery of Boronic Acids-Based β-Lactamase Inhibitors Through In Situ Click Chemistry” (International Journal of Molecular Sciences, 2025).
# Like-named read-outs stand apart in the source and are kept apart here.
# Experiments:
# KPC-2 [1] = biological target: T1, KPC-2 (Klebsiella pneumoniae, UniProt Q9F663); test: Competitive inhibition assay with nitrocefin, Ki; type: biochemical; conditions: for improvement compared with the warhead activity: Ki vs KPC-2 relative to warhead 3 (Ki = 2.3 µM)
# T1 construct: made in house
# Method: (§1) The β-lactamases used in the present study were from a Clinical Biochemistry Laboratory collection (Department of Biotechnological and Applied Clinical Sciences, University of L’Aquila, L’Aquila, Italy). […] The concentration of each enzyme was determined by a Bradford assay.
# (§2) The plot v0/vi versus [I] yielded a straight line of slope KM/(KM + S) × Ki.
# AC = Amplification coefficient. In the AC column, between brackets reports the regioisomeric ratio observed (1,4- vs. 1,5-) and bold reports the synthesised regioisomer. Light blue indicates the compounds obtained from the KPC-2 screening.
# AmpC [2] = biological target: T2, AmpC (Escherichia coli, UniProt P00811); test: Competitive inhibition assay with nitrocefin, Ki; type: biochemical; design: made in house; conditions: AmpC; values in nM
# T2 sequence (P00811 20-377): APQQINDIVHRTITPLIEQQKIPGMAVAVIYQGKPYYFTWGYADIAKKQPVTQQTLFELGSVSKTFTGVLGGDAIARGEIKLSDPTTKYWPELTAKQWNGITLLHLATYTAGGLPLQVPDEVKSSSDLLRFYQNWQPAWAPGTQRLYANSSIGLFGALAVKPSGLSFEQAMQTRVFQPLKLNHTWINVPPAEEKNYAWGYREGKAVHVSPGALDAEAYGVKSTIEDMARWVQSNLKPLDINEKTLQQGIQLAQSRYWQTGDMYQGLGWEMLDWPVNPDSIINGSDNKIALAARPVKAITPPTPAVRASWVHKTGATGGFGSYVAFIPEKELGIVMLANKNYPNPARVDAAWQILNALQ
# Method: as §1, §2
# Figure 9 Compounds synthesised and their biological evaluation. AC = Amplification coefficient. […] Light blue indicates the compounds from the AmpC screening.
# KPC-2 [3] = biological target: T1, KPC-2; conditions: KPC-2 20 mol%; warhead 3 + alkyne cluster; 37 °C, 24 h
# Method: Starting from the azido-functionalised boronic acid 3, optimised conditions (see SI Table S2) were applied in combination with the 90-component alkyne library. The reactions were conducted in 0.2 mL microtubes in a 95:5 sodium phosphate 50 mM pH 7.0:DMSO mixture (final volume 100 µL), stirring at 300 rpm at 37 °C for 24 h (Scheme 1).
# The experiments were conducted in triplicate, using a reaction mixture containing one equivalent of warhead 3, five equivalents of each alkyne cluster (9 alkynes), and 20 mol% KPC-2 as the catalyst. Product formation was monitored directly from the crude mixture using a hybrid quadrupole orbitrap LC–MS system in the ESI+ or ESI- mode after 24 h. Peak areas of the desired products were compared across three conditions: with KPC-2, without any enzyme, and with bovine serum albumin (BSA). […] The resulting ratio, named as the amplification coefficient (AC), was calculated from the peak area of the product obtained in the presence of KPC-2 vs. the one acquired with the controls.
# (§3) Binary and multicomponent KTGS. […] The microtube was shaken at 300 rpm at 37 °C for 24 h. Reactions were transferred into a LC–MS vial and directly injected (10 µL) for liquid chromatography–mass spectrometry (LC–MS). Reactions were analysed with an Ultimate 3000 UHPLC coupled to a Q-exactive hybrid quadrupole-orbitrap mass spectrometer via an HESI-II heated electrospray ionisation source. The chromatographic separation was performed injecting a 10 µL sample volume on a Hypersil Gold C18 100 × 2.1 mm, 1.9 µm column (Thermo Fisher Scientific), kept at 30 °C eluting with 0.3 mL/min flow of ultrapure water (A) and methanol (B), both with 0.1% formic acid as mobile phase. […] A data-dependent mass spectrometric data acquisition strategy was used for full MS/DD-MS2. […] An inclusion list was eventually used to target the MS2 spectra acquisition of preferred ion species. Detection was based on calculated [M+H]^+ and [M−H]^− molecular ions with a 5 ppm accuracy tolerance for their respective ion chromatogram extraction. Peak retention time and area of detected target compounds was used for their detection and semi-quantitative evaluation in between reaction batches.
# (§4) For controls (buffer and BSA), AmpC/KPC-2 is replaced with no enzyme (buffer volume 95 µL) and BSA (stock 100 µM, final concentration 5 µM, buffer volume 90 µL). Hits were identified in each cluster by mass and retention time and compared with both controls (buffer and BSA) and synthetically prepared triazoles obtained in mixtures.
# AmpC [4] = biological target: T2, AmpC; design: made in house; conditions: AmpC 20 mol%; warhead 3 + alkyne cluster; 37 °C, 24 h
# Method: Following the same conditions used for the multicomponent screening with KPC-2, the in situ click chemistry experiment was performed using AmpC as template.
# as §3, §4
# ADC-7 = biological target: ADC-7; design: method as in PMID 26102369, PMID 34970229, PMID 37358467, PMID 26729491; conditions: ref [17],[19],[35],[36]; cited from earlier work
# [5] = Stability in phosphate buffer by 1H NMR; type: physicochemical
# From the text: Previously, even a low level of affinity was reported to be sufficient for the target-templated reaction. Therefore, to enable in situ click chemistry within the β-lactamase’s binding pocket, a series of bifunctional “warheads” displaying two defined features were designed. Firstly, the presence of the boronic acid moiety serves as an anchor to the SBLs catalytic serine. Secondly, the azido functionalisation guarantees the clickable building block for generation of bioactive triazoles within the target active site. Thus, one 2-azido-1-acylamino-ethaneboronic acid and three azidomethyl-phenylboronic acids were synthesised and characterised (Figure 3). […] Herein, the amide side chain from cephalothin is well known to interact with various β-lactamases through van der Waals and H-bonding interactions and can aid the process of recognition within the target. […] Other warheads inspired by previously developed acyclic boronic acids were not considered in this manuscript and will be explored in future works.
# SHV-12 = SHV-12 (Klebsiella pneumoniae, UniProt P0AD64, E235K/G234S/L31Q); test: % inhibition at fixed concentration; type: biochemical; conditions: SHV-12, class A; inhibitor 200 µM; substrate NCF
# ADC-25 = ADC-25 (Acinetobacter baumannii, UniProt A8QIF8); test: % inhibition at fixed concentration; type: biochemical
# Method: (§5) Selection of an appropriate warhead-bearing reagent is crucial for achieving a successful in situ click chemistry. Thus, we assessed the inhibitory activity of the selected warheads against a pool of different β-lactamases to verify their binding specificity for the target. The affinity (inhibitory ability) of 2-4 against 12 representative β-lactamases from class A, B, C, and D was assessed as the percentage of inhibition at a fixed concentration of 200 µM (Table 1).
# as §1, §2
# (§6) For the β-lactamases test at a fixed concentration previously reported in Table 1, the following conditions were applied (Table 3): […]
# CMY-2 = CMY-2 (Klebsiella pneumoniae, UniProt Q48434); test: % inhibition at fixed concentration; type: biochemical
# Method: as §5, §1, §2, §6
# CTX-M-15 = biological target: T3, CTX-M-15 (Escherichia coli, UniProt Q9EXV5); test: % inhibition at fixed concentration; type: biochemical
# T3 construct: made in house
# T3 sequence (Q9EXV5 entry or part of it): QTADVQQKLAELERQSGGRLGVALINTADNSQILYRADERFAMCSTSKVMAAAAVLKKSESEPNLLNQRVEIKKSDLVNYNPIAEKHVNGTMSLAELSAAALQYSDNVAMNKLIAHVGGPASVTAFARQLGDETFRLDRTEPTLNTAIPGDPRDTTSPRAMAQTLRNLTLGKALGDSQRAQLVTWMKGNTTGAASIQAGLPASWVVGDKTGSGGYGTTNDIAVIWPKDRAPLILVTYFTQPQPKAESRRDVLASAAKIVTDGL
# Method: as §5, §1, §2, §6
# IMP-1 = biological target: T4, IMP-1 (Serratia marcescens, UniProt P52699); test: % inhibition at fixed concentration; type: biochemical
# T4 construct: made in house
# Method: as §5, §1, §2, §6
# KPC-2 [6] = biological target: T1, KPC-2; test: % inhibition at fixed concentration; type: biochemical
# Method: as §5, §1, §2, §6
# KPC-53 = KPC-53 (Klebsiella pneumoniae, UniProt Q9F663, DUP166-167/H272Y); test: % inhibition at fixed concentration; type: biochemical
# Method: as §5, §1, §2, §6
# OXA-24 = OXA-24 (Acinetobacter baumannii, UniProt Q8RLA6); test: % inhibition at fixed concentration; type: biochemical
# Method: as §5, §1, §2, §6
# OXA-48 = OXA-48 (Klebsiella pneumoniae, UniProt Q6XEC0); test: % inhibition at fixed concentration; type: biochemical; conditions: OXA-48, class D; inhibitor 200 µM; substrate IMI
# Method: as §5, §1, §2, §6
# VIM-1 = biological target: T5, VIM-1 (Pseudomonas aeruginosa, UniProt A0A0F7KYQ8); test: % inhibition at fixed concentration; type: biochemical
# T5 construct: made in house
# Method: as §5, §1, §2, §6
# AmpC [7] = biological target: T2, AmpC; test: % inhibition at fixed concentration; type: biochemical; design: made in house
# From the text: Selection of an appropriate warhead-bearing reagent is crucial for achieving a successful in situ click chemistry. Thus, we assessed the inhibitory activity of the selected warheads against a pool of different β-lactamases to verify their binding specificity for the target. […]
# as §1, §2, §6
# NDM-1 = NDM-1 (Klebsiella pneumoniae, UniProt C7C422); test: % inhibition at fixed concentration; type: biochemical; design: made in house
# Method: as §5, §1, §2, §6
# KPC-2 [8] = biological target: T1, KPC-2; design: method as in PMID 35792385; conditions: ref [58]; cited from earlier work
smiles,measurement,setting,value
COC(=O)c1cccc(CS(=O)(=O)NCc2cnnn2Cc2cccc(B(O)O)c2)c1 [7a],Ki,KPC-2 [1],4600 nM
same,Ki,AmpC [2],170 nM
C#CCOc1cccc(C(N)=O)c1 [Al-32],AC (amplification coefficient),KPC-2 [3],exceeding three
C#CCS(=O)(=O)c1ccccc1 [Al-39],AC (amplification coefficient),KPC-2 [3],exceeding three
C#CCNS(=O)(=O)Cc1cccc(C(=O)OC)c1 [Al-57],AC (amplification coefficient),KPC-2 [3],exceeding three
C#CCNC(=O)c1ccc(C(=O)OC)cc1 [Al-88],AC (amplification coefficient),AmpC [4],3-4
Nc1nnc(SCC(=O)N[C@@H](Cn2cc(C(=O)O)nn2)B(O)O)s1 [MB076],Ki,ADC-7,210 nM
[N-]=[N+]=NCC(NC(=O)Cc1cccs1)B(O)O (stereo not shown) [compound 1],stability in phosphate buffer,[5],partially degrades
[N-]=[N+]=NCc1ccccc1B(O)O [compound 2],% of inhibition,SHV-12,14%
same,inhibition at 200 µM,ADC-25,27%
same,inhibition at 200 µM,CMY-2,19%
same,inhibition at 200 µM,CTX-M-15,0%
same,inhibition at 200 µM,IMP-1,12%
same,inhibition at 100 µM,KPC-2 [6],35%
same,inhibition at 200 µM,KPC-53,54%
same,inhibition at 200 µM,OXA-24,20%
same,inhibition at 200 µM,OXA-48,< 1%
same,inhibition at 200 µM,VIM-1,23%
same,inhibition at 100 µM,AmpC [7],57%
same,inhibition at 200 µM,NDM-1,23%
"[N-]=[N+]=NCc1cccc(B(O)O)c1 [compound 3, (3-(azidomethyl)phenyl)boronic acid]",% of inhibition,SHV-12,38%
same,inhibition at 200 µM,ADC-25,67%
same,inhibition at 200 µM,CMY-2,79%
same,inhibition at 200 µM,CTX-M-15,42%
same,inhibition at 200 µM,IMP-1,11%
same,inhibition at 100 µM,KPC-2 [6],76%
same,inhibition at 200 µM,KPC-53,65%
same,inhibition at 200 µM,OXA-24,24%
same,inhibition at 200 µM,OXA-48,2%
same,inhibition at 200 µM,VIM-1,24%
same,Ki,KPC-2 [1],2300 nM
same,activity vs. KPC-2,KPC-2 [8],sub-µM
same,inhibition at 100 µM,AmpC [7],100%
same,% of inhibition,"AmpC [7]; AmpC, class C, inhibitor 100 µM, substrate NCF",completely inhibits
same,inhibition at 200 µM,NDM-1,20%
same,Ki,AmpC [2],700 nM
"[N-]=[N+]=NCc1ccc(B(O)O)cc1 [compound 4, (4-(azidomethyl)phenyl)boronic acid]",% of inhibition,SHV-12,48%
same,inhibition at 200 µM,ADC-25,46%
same,inhibition at 200 µM,CMY-2,67%
same,inhibition at 200 µM,CTX-M-15,22%
same,inhibition at 200 µM,IMP-1,22%
same,inhibition at 100 µM,KPC-2 [6],72%
same,inhibition at 200 µM,KPC-53,55%
same,inhibition at 200 µM,OXA-24,26%
same,inhibition at 200 µM,OXA-48,< 1%
same,inhibition at 200 µM,VIM-1,33%
same,activity vs. KPC-2,KPC-2 [8],sub-µM
same,inhibition at 100 µM,AmpC [7],81%
same,inhibition at 200 µM,NDM-1,24%
NC(=O)c1cccc(OCc2cn(Cc3cccc(B(O)O)c3)nn2)c1 [compound 5],Ki,"KPC-2 [1]; KPC-2, values in nM",730 nM
same,improvement compared with the warhead activity,KPC-2 [1],3 fold
same,AC (amplification coefficient),KPC-2 [3],3-4
O=S(=O)(Cc1cn(Cc2cccc(B(O)O)c2)nn1)c1ccccc1 [compound 6],Ki,KPC-2 [1],800 nM
same,improvement compared with the warhead activity,KPC-2 [1],3 fold
same,AC (amplification coefficient),KPC-2 [3],3-4
